From ChEMBL document CHEMBL1201861, “Genomics of Drug Sensitity in Cancer screening data, Wellcome Trust Sanger Institute”
pIC50: −log10 of the molar value.

Key:
Assay in all cases: cells
Details in all cases: Homo sapiens
COLO-800 = format: functional, cell-based;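 also: growth inhibition of COLO-800 cells, read out with a cell viability assay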
Description: SANGER: Inhibition of human COLO-800 cell growth in a cell viability assay.

Calu-6 = format: functional, cell-based;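 also: growth of human Calu-6 cells, read out by a cell viability assay, IC50 marking inhibition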
Description: SANGER: Inhibition of human Calu-6 cell growth in a cell viability assay.

DB = format: functional, cell-based
Description: SANGER: Inhibition of human DB cell growth in a cell viability assay.

DEL = format: functional, cell-based;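 also: growth inhibition of the human DEL cell line, read out with a cell viability assay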
Description: SANGER: Inhibition of human DEL cell growth in a cell viability assay.

EKVX = format: functional, cell-based;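 also: growth inhibition of human EKVX cells, read out with a cell viability assay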
Description: SANGER: Inhibition of human EKVX cell growth in a cell viability assay.

EM-2 = format: functional, cell-based;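 also: growth inhibition of EM-2 cells, read out with a cell viability assay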
Description: SANGER: Inhibition of human EM-2 cell growth in a cell viability assay.

EW-11 = format: functional, cell-based;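 also: growth inhibition of human EW-11 cells, measured with a cell viability assay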
Description: SANGER: Inhibition of human EW-11 cell growth in a cell viability assay.

EW-16 = format: functional, cell-based;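 also: growth inhibition of human EW-16 cells, read out as cell viability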
Description: SANGER: Inhibition of human EW-16 cell growth in a cell viability assay.

EW-24 = format: functional, cell-based;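 also: human EW-24 cancer cell line, growth inhibition read out via a cell viability assay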
Description: SANGER: Inhibition of human EW-24 cell growth in a cell viability assay.

EW-3 = format: functional, cell-based;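 also: cell viability assay read-out, IC50 reflects inhibition of growth of the EW-3 cells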
Description: SANGER: Inhibition of human EW-3 cell growth in a cell viability assay.

GAK = format: functional, cell-based;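 also: cell growth inhibition read out by a cell viability assay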
Description: SANGER: Inhibition of human GAK cell growth in a cell viability assay.

GOTO = format: functional, cell-based;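 also: growth inhibition of GOTO cells, read out by a cell viability assay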
Description: SANGER: Inhibition of human GOTO cell growth in a cell viability assay.

GR-ST = format: functional, cell-based
Description: SANGER: Inhibition of human GR-ST cell growth in a cell viability assay.

HC-1 = format: functional, cell-based;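 also: growth inhibition of HC-1 cells measured by a cell viability assay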
Description: SANGER: Inhibition of human HC-1 cell growth in a cell viability assay.

HD-MY-Z = format: functional, cell-based;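 also: growth inhibition of HD-MY-Z cells, read out with a cell viability assay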
Description: SANGER: Inhibition of human HD-MY-Z cell growth in a cell viability assay.

HT-144 = format: functional, cell-based
Description: SANGER: Inhibition of human HT-144 cell growth in a cell viability assay.

IA-LM = format: functional, cell-based;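 also: cell viability assay measuring growth inhibition of human IA-LM cells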
Description: SANGER: Inhibition of human IA-LM cell growth in a cell viability assay.

K562 = format: functional, cell-based
Description: SANGER: Inhibition of human K-562 cell growth in a cell viability assay.

KALS-1 = format: functional, cell-based;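 also: growth inhibition of KALS-1 cells, determined with a cell viability assay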
Description: SANGER: Inhibition of human KALS-1 cell growth in a cell viability assay.

KARPAS-299 = format: functional, cell-based
Description: SANGER: Inhibition of human KARPAS-299 cell growth in a cell viability assay.

KGN = format: functional, cell-based;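 also: growth inhibition of KGN cells, read out with a cell viability assay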
Description: SANGER: Inhibition of human KGN cell growth in a cell viability assay.

KINGS-1 = format: functional, cell-based;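 also: cell viability assay measuring suppression of KINGS-1 cell growth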
Description: SANGER: Inhibition of human KINGS-1 cell growth in a cell viability assay.

KLE = format: functional, cell-based;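 also: growth inhibition of human KLE cells, read out with a cell viability assay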
Description: SANGER: Inhibition of human KLE cell growth in a cell viability assay.

KNS-81-FD = format: functional, cell-based;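 also: growth inhibition of KNS-81-FD cells, read out with a cell viability assay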
Description: SANGER: Inhibition of human KNS-81-FD cell growth in a cell viability assay.

L-363 = format: functional, cell-based
Description: SANGER: Inhibition of human L-363 cell growth in a cell viability assay.

LB373-MEL-D = format: functional, cell-based;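 also: growth inhibition of the cell line, read out in a cell viability assay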
Description: SANGER: Inhibition of human LB373-MEL-D cell growth in a cell viability assay.

LC-2-ad = format: functional, cell-based;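 also: growth inhibition of human LC-2-ad cells, read out with a cell viability assay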
Description: SANGER: Inhibition of human LC-2-ad cell growth in a cell viability assay.

LOX IMVI = format: functional, cell-based
Description: SANGER: Inhibition of human LOXIMVI cell growth in a cell viability assay.

ML-2 = format: functional, cell-based;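 also: growth inhibition of ML-2 cells, measured with a cell viability readout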
Description: SANGER: Inhibition of human ML-2 cell growth in a cell viability assay.

MS-1 = format: functional, cell-based;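 also: growth inhibition of MS-1 cells, read out by cell viability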
Description: SANGER: Inhibition of human MS-1 cell growth in a cell viability assay.

MZ1-PC = format: functional, cell-based;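 also: cell viability assay measuring growth inhibition of human MZ1-PC cells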
Description: SANGER: Inhibition of human MZ1-PC cell growth in a cell viability assay.

MZ7-mel = format: functional, cell-based;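 also: growth inhibition of human MZ7-mel cells, measured by a cell viability assay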
Description: SANGER: Inhibition of human MZ7-mel cell growth in a cell viability assay.

NB5 = format: functional, cell-based;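 also: growth inhibition of NB5 cells, read out as cell viability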
Description: SANGER: Inhibition of human NB5 cell growth in a cell viability assay.

NCI-H1092 = format: functional, cell-based;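 also: cell growth inhibition measured with a cell viability assay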
Description: SANGER: Inhibition of human NCI-H1092 cell growth in a cell viability assay.

NCI-H1155 = format: functional, cell-based;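 also: cell growth inhibition measured by a viability assay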
Description: SANGER: Inhibition of human NCI-H1155 cell growth in a cell viability assay.

NCI-H1355 = format: functional, cell-based;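 also: growth inhibition of human NCI-H1355 cells, read out by a cell viability assay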
Description: SANGER: Inhibition of human NCI-H1355 cell growth in a cell viability assay.

NCI-H1395 = format: functional, cell-based;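 also: cell viability assay read-out quantifying reduced proliferation of human NCI-H1395 cells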
Description: SANGER: Inhibition of human NCI-H1395 cell growth in a cell viability assay.

NCI-H1648 = format: functional, cell-based;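 also: cell viability assay measuring inhibition of NCI-H1648 cell growth, from the Sanger screening data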
Description: SANGER: Inhibition of human NCI-H1648 cell growth in a cell viability assay.

NCI-H1650 = format: functional, cell-based;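 also: growth inhibition of human NCI-H1650 cells measured by a cell viability assay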
Description: SANGER: Inhibition of human NCI-H1650 cell growth in a cell viability assay.

NCI-H1838 = format: functional, cell-based;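 also: growth inhibition of NCI-H1838 cells, determined with a cell viability readout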
Description: SANGER: Inhibition of human NCI-H1838 cell growth in a cell viability assay.

NCI-H2126 = format: functional, cell-based;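 also: growth inhibition of the cancer cell line, determined with a cell viability readout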
Description: SANGER: Inhibition of human NCI-H2126 cell growth in a cell viability assay.

NCI-H226 = format: functional, cell-based;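 also: cell viability read-out used to gauge growth inhibition of the cells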
Description: SANGER: Inhibition of human NCI-H226 cell growth in a cell viability assay.

NCI-H23 = format: functional, cell-based;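 also: cell viability assay measuring growth inhibition of NCI-H23 cells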
Description: SANGER: Inhibition of human NCI-H23 cell growth in a cell viability assay.

NEC8 = format: functional, cell-based;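 also: growth inhibition of human NEC8 cells, read out by a cell viability assay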
Description: SANGER: Inhibition of human NEC8 cell growth in a cell viability assay.

RKO = format: functional, cell-based;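 also: growth inhibition of human RKO cells, read out with a cell viability assay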
Description: SANGER: Inhibition of human RKO cell growth in a cell viability assay.

RXF 393 = format: functional, cell-based;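 also: growth inhibition of human RXF 393 cells, read out with a cell viability assay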
Description: SANGER: Inhibition of human RXF393 cell growth in a cell viability assay.

SBC-1 = format: functional, cell-based;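 also: cell viability assay measuring growth inhibition of the SBC-1 cell line, IC50 being the concentration that halves growth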
Description: SANGER: Inhibition of human SBC-1 cell growth in a cell viability assay.

SF-126 = format: functional, cell-based;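 also: growth inhibition of human SF126 cells, read out with a cell viability assay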
Description: SANGER: Inhibition of human SF126 cell growth in a cell viability assay.

SH-4 = format: functional, cell-based;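 also: growth inhibition of SH-4 cells, read out with a cell viability assay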
Description: SANGER: Inhibition of human SH-4 cell growth in a cell viability assay.

SK-N-DZ = format: functional, cell-based;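 also: growth inhibition of the cancer cell line, read out through a viability assay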
Description: SANGER: Inhibition of human SK-N-DZ cell growth in a cell viability assay.

SK-NEP-1 = format: functional, cell-based;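 also: growth inhibition of human SK-NEP-1 cells, read out by a cell viability assay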
Description: SANGER: Inhibition of human SK-NEP-1 cell growth in a cell viability assay.

SK-PN-DW = format: functional, cell-based;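 also: growth inhibition measured with a viability assay on these cells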
Description: SANGER: Inhibition of human SK-PN-DW cell growth in a cell viability assay.

SW 962 = format: functional, cell-based;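 also: growth inhibition of human SW962 cells, read out by a cell viability assay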
Description: SANGER: Inhibition of human SW962 cell growth in a cell viability assay.

A101D = format: functional, cell-based;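 also: growth inhibition of the cell line, measured with a viability assay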
Description: SANGER: Inhibition of human A101D cell growth in a cell viability assay.

TE-12 = format: functional, cell-based;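 also: growth inhibition of TE-12 cells, read out by a cell viability assay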
Description: SANGER: Inhibition of human TE-12 cell growth in a cell viability assay.

TE-5 = format: functional, cell-based;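 also: inhibition of cell growth, read out by a cell viability assay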
Description: SANGER: Inhibition of human TE-5 cell growth in a cell viability assay.

TE-8 = format: functional, cell-based;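 also: growth inhibition of TE-8 cells, measured with a cell viability readout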
Description: SANGER: Inhibition of human TE-8 cell growth in a cell viability assay.

TE-9 = format: functional, cell-based
Description: SANGER: Inhibition of human TE-9 cell growth in a cell viability assay.

TGBC1TKB = format: functional, cell-based
Description: SANGER: Inhibition of human TGBC1TKB cell growth in a cell viability assay.

TK-10 = format: functional, cell-based
Description: SANGER: Inhibition of human TK10 cell growth in a cell viability assay.

U-87 MG = format: functional, cell-based, U-87MG ATCC
Description: SANGER: Inhibition of human U-87-MG cell growth in a cell viability assay.

VA-ES-BJ = format: functional, cell-based
Description: SANGER: Inhibition of human VA-ES-BJ cell growth in a cell viability assay.

no-10 = format: functional, cell-based
Description: SANGER: Inhibition of human no-10 cell growth in a cell viability assay.

no-11 = format: functional, cell-based
Description: SANGER: Inhibition of human no-11 cell growth in a cell viability assay.

CGTH-W-1 = format: functional, cell-based
Description: SANGER: Inhibition of human CGTH-W-1 cell growth in a cell viability assay.

COLO-668 = format: functional, cell-based
Description: SANGER: Inhibition of human COLO-668 cell growth in a cell viability assay.

For `N#C/C(=C1/Nc2ccccc2S1)c1ccnc(NCCc2cccnc2)n1`, the pIC50 (COLO-800) was less than 5.10, the pIC50 (Calu-6) was less than 5.10 and the pIC50 (DB) was less than 5.10. The pIC50 (DEL) was 5.20, the pIC50 (EKVX) was less than 5.10 and the pIC50 (EM-2) was less than 5.10. The pIC50 (EW-11) was less than 5.10, the pIC50 (EW-16) was 5.30 and the pIC50 (EW-24) was less than 5.10. For the same molecule, the pIC50 (EW-3) was less than 5.10, the pIC50 (GAK) was 5.17 and the pIC50 (GOTO) was less than 5.10. It also gave a pIC50 (GR-ST) of less than 5.10, a pIC50 (HC-1) of less than 5.10 and a pIC50 (HD-MY-Z) of less than 5.10. For the same molecule, the pIC50 (HT-144) was less than 5.10, the pIC50 (IA-LM) was 5.56 and the pIC50 (K562) was less than 5.10. For the same molecule, the pIC50 (KALS-1) was less than 5.10, the pIC50 (KARPAS-299) was less than 5.10 and the pIC50 (KGN) was 5.23. For the same molecule, the pIC50 (KINGS-1) was less than 5.10, the pIC50 (KLE) was less than 5.10 and the pIC50 (KNS-81-FD) was less than 5.10. It also gave a pIC50 (L-363) of less than 5.10, a pIC50 (LB373-MEL-D) of less than 5.10 and a pIC50 (LC-2-ad) of less than 5.10. It also gave a pIC50 (LOX IMVI) of less than 5.10, a pIC50 (ML-2) of less than 5.10 and a pIC50 (MS-1) of less than 5.10. For the same molecule, the pIC50 (MZ1-PC) was less than 5.10, the pIC50 (MZ7-mel) was less than 5.10 and the pIC50 (NB5) was less than 5.10. The pIC50 (NCI-H1092) was less than 5.10, the pIC50 (NCI-H1155) was less than 5.10 and the pIC50 (NCI-H1355) was 5.95. The pIC50 (NCI-H1395) was less than 5.10, the pIC50 (NCI-H1648) was less than 5.10 and the pIC50 (NCI-H1650) was less than 5.10. It also gave a pIC50 (NCI-H1838) of less than 5.10, a pIC50 (NCI-H2126) of less than 5.10 and a pIC50 (NCI-H226) of less than 5.10. The pIC50 (NCI-H23) was less than 5.10, the pIC50 (NEC8) was less than 5.10 and the pIC50 (RKO) was 5.64. The pIC50 (RXF 393) was less than 5.10, the pIC50 (SBC-1) was less than 5.10 and the pIC50 (SF-126) was less than 5.10. The pIC50 (SH-4) was less than 5.10, the pIC50 (SK-N-DZ) was less than 5.10 and the pIC50 (SK-NEP-1) was less than 5.10. It also gave a pIC50 (SK-PN-DW) of less than 5.10, a pIC50 (SW 962) of less than 5.10 and a pIC50 (A101D) of 5.65. The pIC50 (TE-12) was 5.85, the pIC50 (TE-5) was less than 5.10 and the pIC50 (TE-8) was 5.54. It also gave a pIC50 (TE-9) of 5.19, a pIC50 (TGBC1TKB) of less than 5.10 and a pIC50 (TK-10) of 5.43. For the same molecule, the pIC50 (U-87 MG) was less than 5.10, the pIC50 (VA-ES-BJ) was less than 5.10 and the pIC50 (no-10) was less than 5.10. It also gave a pIC50 (no-11) of less than 5.10, a pIC50 (CGTH-W-1) of 5.26 and a pIC50 (COLO-668) of 5.35.
`CC(=O)c1c(C)c2cnc(Nc3ccc(N4CCNCC4)cn3)nc2n(C2CCCC2)c1=O` [PALBOCICLIB] was tested, and the pIC50 (COLO-800) was 6.05, the pIC50 (Calu-6) was less than 5.40 and the pIC50 (DB) was 5.97. For the same molecule, the pIC50 (DEL) was 5.77, the pIC50 (EKVX) was less than 5.40 and the pIC50 (EM-2) was 6.19. For the same molecule, the pIC50 (EW-11) was less than 5.40, the pIC50 (EW-16) was 6.22 and the pIC50 (EW-3) was 6.09. The pIC50 (GAK) was less than 5.40, the pIC50 (GOTO) was less than 5.40 and the pIC50 (GR-ST) was less than 5.40. For the same molecule, the pIC50 (HD-MY-Z) was less than 5.40, the pIC50 (HT-144) was less than 5.40 and the pIC50 (IA-LM) was less than 5.40. It also gave a pIC50 (K562) of less than 5.40, a pIC50 (KARPAS-299) of less than 5.40 and a pIC50 (KGN) of 5.55. The pIC50 (KINGS-1) was less than 5.40, the pIC50 (KLE) was less than 5.40 and the pIC50 (KNS-81-FD) was less than 5.40. The pIC50 (L-363) was 5.73, the pIC50 (LC-2-ad) was less than 5.40 and the pIC50 (LOX IMVI) was 5.72. For the same molecule, the pIC50 (ML-2) was 5.92, the pIC50 (MS-1) was less than 5.40 and the pIC50 (MZ1-PC) was less than 5.40. For the same molecule, the pIC50 (MZ7-mel) was less than 5.40, the pIC50 (NB5) was less than 5.40 and the pIC50 (NCI-H1092) was less than 5.40. It also gave a pIC50 (NCI-H1155) of less than 5.40, a pIC50 (NCI-H1355) of 5.59 and a pIC50 (NCI-H1395) of less than 5.40. The pIC50 (NCI-H1650) was less than 5.40, the pIC50 (NCI-H226) was less than 5.40 and the pIC50 (NCI-H23) was less than 5.40. The pIC50 (NEC8) was less than 5.40, the pIC50 (RKO) was 5.62 and the pIC50 (RXF 393) was 6.09. The pIC50 (SBC-1) was less than 5.40, the pIC50 (SF-126) was less than 5.40 and the pIC50 (SH-4) was less than 5.40. For the same molecule, the pIC50 (SK-N-DZ) was less than 5.40, the pIC50 (SK-NEP-1) was 6.66 and the pIC50 (SK-PN-DW) was less than 5.40. It also gave a pIC50 (SW 962) of 6.09, a pIC50 (A101D) of 5.42 and a pIC50 (TE-12) of less than 5.40. It also gave a pIC50 (TE-5) of less than 5.40, a pIC50 (TE-8) of 5.85 and a pIC50 (TE-9) of less than 5.40. It also gave a pIC50 (TGBC1TKB) of less than 5.40, a pIC50 (TK-10) of 5.49 and a pIC50 (U-87 MG) of less than 5.40. For the same molecule, the pIC50 (VA-ES-BJ) was 6.14, the pIC50 (no-10) was less than 5.40 and the pIC50 (no-11) was less than 5.40. The pIC50 (CGTH-W-1) was 5.93 and the pIC50 (COLO-668) was less than 5.40.
